Assay results published in patent US6887878B2, “KMST isoeugenol derivatives and pharmaceutical activity” (Ing-Jun Chen, priority 2003, dated 2005).
Where two headings read alike, the source gives them in different places.

How the values were obtained:
α2 receptors = test: [3H]yohimbine receptor binding in rat cortex; design: species or system Wistar rat
Description: (§1) The homogenate was pressure filtered through muslin. Filtrate was centrifuged at 1000 g for 10 min. […] Protein content was determined by Bradford's method.

α1 receptors = test: [3H]prazosin receptor binding in rat cortex; design: species or system Wistar rat
Description: as §1

5-HT2A receptor = 5-HT2A receptor (Rattus norvegicus, UniProt P14842); test: [3H]ketanserin receptor binding in rat cortex; design: from tissue; host or cells: Wistar rat cortex membranes; species or system Wistar rat
Chain of 5-HT2A receptor (P14842 whole entry): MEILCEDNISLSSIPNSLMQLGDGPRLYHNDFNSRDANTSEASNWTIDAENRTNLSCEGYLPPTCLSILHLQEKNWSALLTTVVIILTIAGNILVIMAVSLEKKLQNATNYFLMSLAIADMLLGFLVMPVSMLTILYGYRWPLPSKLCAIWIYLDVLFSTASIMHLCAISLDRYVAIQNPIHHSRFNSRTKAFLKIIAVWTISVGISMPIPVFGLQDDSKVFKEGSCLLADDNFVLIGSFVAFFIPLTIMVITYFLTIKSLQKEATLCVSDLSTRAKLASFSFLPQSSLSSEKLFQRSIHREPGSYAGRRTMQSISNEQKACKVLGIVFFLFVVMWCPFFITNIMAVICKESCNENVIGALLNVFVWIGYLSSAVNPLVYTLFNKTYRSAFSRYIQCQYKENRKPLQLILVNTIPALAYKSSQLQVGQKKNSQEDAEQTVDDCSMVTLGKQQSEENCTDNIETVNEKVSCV
Description: as §1

5-HT1A = biological target: T1, 5-HT1A (Rattus norvegicus, UniProt P19327); test: [3H]WAY100635 receptor binding; conditions: read-out: Ki 5-HT1A; [3H]WAY100635
T1 sequence (P19327 1-422): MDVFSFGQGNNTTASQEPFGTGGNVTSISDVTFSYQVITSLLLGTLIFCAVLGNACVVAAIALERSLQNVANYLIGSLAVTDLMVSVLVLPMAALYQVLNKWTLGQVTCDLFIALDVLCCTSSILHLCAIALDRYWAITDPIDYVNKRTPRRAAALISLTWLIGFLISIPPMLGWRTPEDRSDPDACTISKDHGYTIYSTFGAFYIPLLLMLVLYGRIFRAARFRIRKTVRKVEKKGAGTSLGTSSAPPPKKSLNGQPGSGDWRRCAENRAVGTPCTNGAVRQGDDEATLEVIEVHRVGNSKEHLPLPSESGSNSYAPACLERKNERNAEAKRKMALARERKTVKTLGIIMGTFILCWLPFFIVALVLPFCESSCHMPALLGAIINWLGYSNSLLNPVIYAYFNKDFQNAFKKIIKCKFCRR

M2 = M2 receptor binding; design: species or system guinea pig
[1] = tested on: serotonin-induced human platelet aggregation; test: serotonin-induced human platelet aggregation; format: cell-based; conditions: serotonin 5 μM, PRP; read-out: IC50 serotonin-induced human platelet aggregation
Description: (§2) Venous blood from human volunteer donors was collected in 10 ml Monovette containing 1 ml citrate solution (0.106M trisodium citrate; Sarstedt, Nümbrecht, Germany) and centrifuged (400 g, 10 min, 20° C.). […] After centrifugation (10 min, 2000 g, 20° C.), the platelet pellet was resuspended in wishing buffer (113 mM NaCl, 4 mM Na2HPO4, 24 mM NaH2PO4, 4 mM KCl, 0.2 mM EGTA(Ethylene glycol-bis-(2-aminoethyl ether) N,N,N′-tetraacetic acid), 0.1% (wt/vol) glucose, pH 6.0) and recentrifuged (10 min, 2000 g, 20° C.). The washed platelets were resuspended in incubation buffer (134 mM NaCl, 12 mM NaHCO3, 2.9 mM KCl, 0.34 mM NaH2PO4, 5 mM HEPES (N-(2-hydroxyethyl) piperazine-N′-(2-ethanesulfonic acid)), 5 mM glucose, pH7.4), cells were counted in a Sysmex hematology analyzer (Sysmex, CDA-500, Japan) and adjusted to a final concentration of 2×10^8 platelets/ml.
(§3) The aggregation of the platelets in platelet-rich plasma (PRP) was measured as a change in light absorbance by a Payton dual-channel aggregometer (NBS, Hema tracer, Japan). PRP (240 μL) was stirred (700 rpm) at 37° C. for 1 min, and 5 μL epinephrine (final concentration 5 μM), serotonin (final concentration 5 μM) was added. After which the rate of primary aggregation (1/min) and maximum aggregation (%) at 5 min were recorded. To study the effects of compounds on epinephrine or serotonin-induced aggregation, PRP was incubated with 5 μL of compounds at various concentrations for 1 min before epinephrine or serotonin was added. IC50 values given were calculated from the secondary aggregation data.

β1 receptors = biological target: T2, β1 receptors (Rattus norvegicus, UniProt P18090); test: [3H]CGP-12177 receptor binding in rat ventricle; design: species or system Wistar rat; conditions: [3H]CGP-12177, rat ventricle
T2 construct: from tissue; host or cells: Wistar rat heart (ventricle) membranes
T2 sequence (P18090 whole entry): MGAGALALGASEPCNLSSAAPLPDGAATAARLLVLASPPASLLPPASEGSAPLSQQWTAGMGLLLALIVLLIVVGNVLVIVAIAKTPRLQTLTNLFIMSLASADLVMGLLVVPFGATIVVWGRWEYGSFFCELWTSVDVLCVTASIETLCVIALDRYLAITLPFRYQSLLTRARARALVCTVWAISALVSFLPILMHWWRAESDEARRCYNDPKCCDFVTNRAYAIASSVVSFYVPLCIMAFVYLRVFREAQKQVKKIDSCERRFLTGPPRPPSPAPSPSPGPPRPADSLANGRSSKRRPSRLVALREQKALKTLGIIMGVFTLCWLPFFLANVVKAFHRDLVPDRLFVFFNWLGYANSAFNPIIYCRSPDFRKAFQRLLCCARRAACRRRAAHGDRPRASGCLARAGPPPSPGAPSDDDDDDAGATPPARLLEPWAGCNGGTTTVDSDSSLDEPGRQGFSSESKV
Description: as §1

[2] = tested on: epinephrine-induced human platelet aggregation; test: epinephrine-induced human platelet aggregation; format: cell-based; conditions: epinephrine 5 μM, PRP
Description: as §2, §3

5-HT1B = biological target: T3, 5-HT1B (Rattus norvegicus, UniProt P28564); test: [3H]GR125743 receptor binding in rat cortex; design: species or system Wistar rat; conditions: [3H]GR125743 (5-HT1B/1D), rat cortex; read-out: Ki 5-HT1B
T3 construct: from tissue; host or cells: Wistar rat cortex membranes
T3 sequence (P28564 whole entry): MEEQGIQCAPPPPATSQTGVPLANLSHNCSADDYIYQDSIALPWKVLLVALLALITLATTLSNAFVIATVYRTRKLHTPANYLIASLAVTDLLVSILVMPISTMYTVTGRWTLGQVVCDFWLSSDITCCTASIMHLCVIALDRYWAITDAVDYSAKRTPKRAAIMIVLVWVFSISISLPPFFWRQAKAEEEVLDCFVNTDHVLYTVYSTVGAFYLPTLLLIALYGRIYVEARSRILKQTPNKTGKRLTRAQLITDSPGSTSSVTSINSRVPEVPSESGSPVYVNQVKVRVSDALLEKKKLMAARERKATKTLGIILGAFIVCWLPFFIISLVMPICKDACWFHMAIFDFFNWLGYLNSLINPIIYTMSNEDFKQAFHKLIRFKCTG
Description: as §1

β2 receptors = biological target: T4, β2 receptors (Rattus norvegicus, UniProt P10608); test: [3H]CGP-12177 receptor binding in rat lung; design: species or system Wistar rat; conditions: [3H]CGP-12177, rat lung
T4 construct: from tissue; host or cells: Wistar rat lung membranes
T4 sequence (P10608 whole entry): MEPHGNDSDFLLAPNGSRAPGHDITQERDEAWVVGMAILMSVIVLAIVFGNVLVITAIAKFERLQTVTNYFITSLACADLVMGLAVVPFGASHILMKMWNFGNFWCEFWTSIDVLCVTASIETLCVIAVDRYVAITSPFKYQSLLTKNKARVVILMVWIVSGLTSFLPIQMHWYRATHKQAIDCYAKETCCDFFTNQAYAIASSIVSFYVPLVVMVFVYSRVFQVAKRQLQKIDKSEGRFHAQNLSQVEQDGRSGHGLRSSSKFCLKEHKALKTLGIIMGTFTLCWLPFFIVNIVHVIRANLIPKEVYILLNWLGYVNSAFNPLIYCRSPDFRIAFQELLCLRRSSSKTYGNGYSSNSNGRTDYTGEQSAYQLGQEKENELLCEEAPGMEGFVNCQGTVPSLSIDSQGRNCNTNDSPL
Description: as §1

anesthetized rats [3] = test: intra-cisternal injection and NTS microinjection, BP and HR; format: in vivo, rat; conditions: for BP and HR after intra-cisternal injection and NTS microinjection: central administration
Description: Intra-cisternal injections of KMST (0.3, 0.03 μmol), yohimbine [0.03 μmol), and clonidine (38 pmol), were performed in rats as described by Duan et al (1987). Briefly, rats weighing 250-300 g were anaesthetized with pentobarbital sodium (50 mg kg^−1, i.p.) and mounted in a David-Kopf stereotaxic instrument (Yeh J L. et al., Brain. Res. Bull., 30:641-648, 1993). The calvarium was exposed and a 1 mm diameter trephine hole was drilled 1.8 mm lateral to the coronary and 1.5 mm posterior to the sagittal sutures. A cannula (0.7 mm O.D.) connected to a Hamilton syringe (RN-705, 5051) by PE-50 was advanced 4.7 mm into the brain using the electrode carrier.
Rats were anesthetized and placed in a David-Kopf stereotaxic instrument. The cerebellum was exposed after removing the skin and occipital bone. The NTS coordinates were (reference to lambda) P 5-6 mm, L/R 0.5-1 mm, depth 6-7.5 mm (Wu et al., 1994). NTS injection sites were confirmed by decreasing BP and HR following micro-injection of 1% L-glutamate. […] Pre-treatment with clonidine was performed 15 min before administration of test agents. At the end of experiments, the animals were sacrificed. The brain was removed and sectioned for histological confirmation of the drug application site.

[4] = tested on: phenylephrine-induced contractions in rat thoracic aorta; test: LPS-induced vascular hyporeactivity: phenylephrine-induced contractions in rat thoracic aorta; format: in vivo, Wistar rat; conditions: pD2 to phenylephrine
anesthetized rats [5] = test: LPS-induced hypotension; format: in vivo, Wistar rat; conditions: pretreatment, intravenous LPS
Description: (§4) In brief, Wistar rats weighing 250-300 g were anesthetized with pentobarbital sodium (50 mg kg^−1, i.p.). Following tracheal cannulation, systemic arterial BP and HR were recorded from the femoral artery by a pressure transducer (model P10EZ; Spectramed, Oxnard, Calif., U.S.A.) connected to a recorder (GOULD, Valley View, Ohio, Model P50). Body temperature was maintained at 37° C. by an electric heating pad. A femoral vein was cannulated for intravenous injection of drugs and LPS (10 mg kg^−1).

[6] = tested on: IL-1β, IL-6, IFN-γ and TNF-α; test: LPS-induced plasma cytokine immunoreactivity; format: in vivo, rat; conditions: for LPS-induced elevations of IL-1β, IL-6, IFN-γ and TNF-α levels: 1 mg kg−1, i.v., pretreatment
Description: as §4
Blood was collected from venous cannula, injected into ice-cold heparinized Eppendorf tubes and centrifuged at 1500 rpm for 10 min at 4° C. Plasma supernatant was stored at −70° C. until analyzed. Solid phase enzyme immunoassay that specifically detects murine IL-1β, IL-6, IFN-γ and TNF-α was used with a detection limit of >10 pg/ml (Endogen, U.S.A). Pre-treatment with KMST and other agents was performed 15 minutes before intravenous injection of LPS. Blood was collected from venous cannula. Blood glucose was measured with a glucose test strip (Glucotide, Bayer, U.S.A) at 1, 3 and 5 hours.

[7] = tested on: epinephrine-induced human platelet aggregation; conditions: Mustonen et al., 2000; read-out: estimated IC50 to inhibit epinephrine-induced platelet aggregation; cited from earlier work
[8] = tested on: lipid peroxidation in rat brain homogenate; test: lipid peroxidation initiated by Fe2+-ascorbic acid in rat brain homogenates (TBARS); format: biochemical; conditions: rat brain homogenates; read-out: IC50 inhibiting lipid peroxidation initiated by Fe2+-ascorbic acid
Description: Rat brain homogenate was made in 0.9% saline containing 10 mg tissue/ml. The rates of membrane lipid peroxidation were measured by the formation of thiobarbituric acid (TBA)-reactive substance (TBARS). Rat brain homogenates (1 ml) were incubated at 37° C. for 5 min with 10 μl of test compound or vehicle. […] After 30 min of incubation, the reaction was stopped by adding 0.1 ml of 0.2% BHT. TBA reagent was then added and the mixture was heated for 30 min in a boiling water bath. […] The amount of TBARS was quantified using the linear regression obtained from malondialdehyde (MDA) standards.

[9] = agent given after LPS injection (1 hr)
[10] = agent given before LPS injection (30 min)

Molecule: NCCc1c[nH]c2ccc(O)cc12 [Compound 5-HT, 5-Hydroxytryptamine]
- Ki (α2 receptors): > 10000 nM
- Ki (α1 receptors): > 10000 nM

Molecule: CC=Cc1ccc(OCC(O)CN2CCN(c3ccc(Cl)cc3)CC2)c(OC)c1 (centres unmarked) [Compound 2]
- Ki (5-HT2A receptor): 2.99 nM
- Ki (α2 receptors): 1970 nM
- Ki (α1 receptors): 47 nM
- Ki (5-HT1A): > 10000 nM
- Ki (M2): > 10000 nM
- IC50 [1]: 4.73 nM
- Ki (β1 receptors): 106 nM
- IC50 [2]: 3900 nM
- Ki (5-HT1B): 1090 nM
- Ki (β2 receptors): > 10000 nM

Molecule: CC=Cc1ccc(OCCCN2CCN(c3cccc(Cl)c3)CC2)c(OC)c1 [Compound 3]
- Ki (5-HT2A receptor): 3.11 nM
- Ki (α2 receptors): 9290 nM
- Ki (α1 receptors): 142 nM
- Ki (5-HT1A): > 10000 nM
- Ki (M2): > 10000 nM
- IC50 [1]: 530 nM
- Ki (β1 receptors): 113 nM
- IC50 [2]: 4.38 nM
- Ki (5-HT1B): 770 nM
- Ki (β2 receptors): > 10000 nM

Molecule: O=c1n(CCCN2CCN(c3cccc(Cl)c3)CC2)nc2ccccn12 [Trazodone]
- BP and HR after intra-cisternal injection and NTS microinjection (anesthetized rats [3]): increased BP and HR
- pD2 at 3rd hr [4, 9]: 6.01 ± 0.09
- pD2 at 5th hr [4, 9]: 5.04 ± 0.11
- pD2 at 3rd hr [4, 10]: 6.29 ± 0.21
- pD2 at 5th hr [4, 10]: 3.99 ± 0.16
- aortic hyporeactivity and second prolonged hypotensive reaction induced by LPS (anesthetized rats [5]): inhibited
- LPS-induced elevations of IL-1β, IL-6, IFN-γ and TNF-α levels [6]: reduced only IL-1β and TNF-α

Molecule: Methsergide [reference compound]
- Ki (α2 receptors): 2430 nM
- Ki (α1 receptors): > 10000 nM
- Ki (5-HT1A): > 10000 nM
- Ki (5-HT1B): > 10000 nM

Molecule: CC(CCc1ccccc1)NCC(O)c1ccc(O)c(C(N)=O)c1 (centres unmarked) [Labetalol, reference compound]
- Ki (α1 receptors): 52.5 nM
- Ki (β1 receptors): 4.17 nM

Molecule: COC(=O)[C@@H]1[C@H]2C[C@H]3c4[nH]c5ccccc5c4CCN3C[C@@H]2CC[C@@H]1O [Yohimbine]
- BP and HR after intra-cisternal injection and NTS microinjection (anesthetized rats [3]): increased BP and HR
- clonidine-induced bradycardia (anesthetized rats [3]; low dose (0.03 μmol)): did not inhibit
- clonidine-induced hypotension (anesthetized rats [3]; low dose (0.03 μmol)): reduced
- pD2 at 3rd hr [4, 9]: 6.12 ± 0.14
- pD2 at 5th hr [4, 9]: 5.13 ± 0.26
- pD2 at 3rd hr [4, 10]: 6.73 ± 0.33
- pD2 at 5th hr [4, 10]: 3.44 ± 0.22
- aortic hyporeactivity and second prolonged hypotensive reaction induced by LPS (anesthetized rats [5]): inhibited
- LPS-induced elevations of IL-1β, IL-6, IFN-γ and TNF-α levels [6]: reduced only IL-1β and TNF-α
- LPS-induced production of IFN-γ ([6]; 1 hour after LPS administration): insignificantly enhanced
- IC50 [7]: 980 nM
- IC50 [8]: 11100 ± 350 nM
